We go through 2 molecules from patent publication US20230143752A1, “CANNABIDIOL NANODRUG FORMULATIONS AND METHODS FOR USE OF THE SAME” (priority 2020, published 2023).

Test [1] has as its system mice with Auto-Immune Alopecia. Kind of test: Hair regrowth in alopecia mice, topical treatment daily for 12 weeks. Format: in vivo. The conditions noted are these: for Number of animals per hair regrowth category, Category 0: 0=no hair growth; for Number of animals per hair regrowth category, Category 0 / Number of animals per hair regrowth category, Category 1 / Number of animals per hair regrowth category, Category 2 / Number of animals per hair regrowth category, Category 3 / Number of animals per hair regrowth category, Category 4: six animals per group, topical daily 12 weeks; for Number of animals per hair regrowth category, Category 1: 1=0-25% hair regrowth; for Number of animals per hair regrowth category, Category 2: 2=25-50% hair regrowth; for Number of animals per hair regrowth category, Category 3: 3=50-75% hair regrowth; for Number of animals per hair regrowth category, Category 4: 4=75-100% hair regrowth. On the procedure:
An animal study was carried out to determine the effect of a CBD nanoparticulate formulation comprising minoxidil as described herein on the induction of hair regrowth in alopecia mice after 12 weeks. In order to collect preliminary information on the reversal of Alopecia by CBD/minoxidil, a randomized pilot study on 24 animals was performed.
Eight- to ten-month-old mice with Auto-Immune Alopecia were randomized into four groups (six animals per group), receiving topical treatments daily for 12 weeks. Group 1 (Control group) received 0.1 ml of control solution applied topically over the ventral area daily for 12 weeks. Group 2 (CBD group) received 20 μg of CBD in 0.1 ml of control solution applied topically over the ventral area daily for 12 weeks. Group 3 (minoxidil) received 0.1 ml of 5% minoxidil solution applied topically over the ventral area daily for 12 weeks. Group 4 (CBD/minoxidil) received 20 μg of CBD and 5% minoxidil in 0.1 ml solution applied topically over the ventral area daily for 12 weeks.
Mice were sacrificed at the end point of a twelve week observation period, and skin biopsies were obtained. Skin biopsies were processed for histopathology.
Reported categories are as follows: 0=no hair growth, 1=0-25% hair regrowth, 2=25-50% hair regrowth, 3=50-75% hair regrowth, 4=75-100% hair regrowth.

Test [2] concerns CTLL-2 cytotoxic T lymphocytes. Kind of test: In vitro screening platform for immunomodulation (CTLL-2). It counts as cell-based. Particulars: CTLL-2, FIG. 4. The procedure: An in vitro screening platform for immunomodulation was used to evaluate nanoparticles for efficacy. CTLL-2 (ATCC®TIB-214™) are cytotoxic T lymphocytes that were purchased and cultured according to ATCC protocol. Once confluent, cells were seeded in a 12-well plate at a concentration of 55,000 cells/mL and treated, in triplicates, with the CBD nanoformulations described herein.
A similar experiment was carried out using CBD alone (not in nanoformulations).
In order to investigate options for improving CBD drug delivery in vitro, CBD was also formulated as a carrier-free nanoparticle and evaluated for efficacy.

Where [3] appears, read: alopecia mice, after 12 weeks, FIG. 6.

For the molecule `C=C(C)[C@@H]1CCC(C)=C[C@H]1c1c(O)cc(CCCCC)cc1O` [CBD, Cannabidiol], in test [1], the “Number of animals per hair regrowth category, Category 0” value is listed as 6; the “Number of animals per hair regrowth category, Category 1” value came to 0; the “Number of animals per hair regrowth category, Category 2” value is given as 0; the “Number of animals per hair regrowth category, Category 3” value came to 0. Moreover, the “Number of animals per hair regrowth category, Category 4” value in test [1] was 0. For the same molecule, the “hair regrowth, summary” value in test [1] (alopecia mice, 12 weeks topical) is “none of the control (vehicle), CBD alone, or minoxidil alone mice showed significant hair regrowth”. Moreover, in test [1] (setting [3]), the “effect observed in histopathology” value is listed as “No significant effect” and the “histopathology finding in skin biopsies” value is listed as “miniaturization”. The “reducing T-lymphocytes compared to controls” value in test [2] is recorded as “effective”.

For the molecule `Nc1cc(N2CCCCC2)nc(N)[n+]1[O-]` [Minoxidil, minoxidil], in test [1], the “Number of animals per hair regrowth category, Category 0” value is 6; the “Number of animals per hair regrowth category, Category 1” value turned out to be 0; the “Number of animals per hair regrowth category, Category 2” value is given as 0; the “Number of animals per hair regrowth category, Category 3” value is 0. Further, in test [1], the “Number of animals per hair regrowth category, Category 4” value was 0. Besides, the “effect observed in histopathology” value in test [1] (setting [3]) is “No significant effect”.
